One block for each compound: values may come before it.
Key:
FFAR4 = target: T1, FFAR4 (Homo sapiens, UniProt Q5NUL3); experiment: Single-molecule imaging of GPCR diffusive dynamics (DAv) in HEK293 cells; format: cell-based; conditions: 100 nM ligand, mean ± standard error, n=20 cells, vehicle 0.083
T1 construct: host or cells: HEK293
T1 sequence (Q5NUL3 1-361): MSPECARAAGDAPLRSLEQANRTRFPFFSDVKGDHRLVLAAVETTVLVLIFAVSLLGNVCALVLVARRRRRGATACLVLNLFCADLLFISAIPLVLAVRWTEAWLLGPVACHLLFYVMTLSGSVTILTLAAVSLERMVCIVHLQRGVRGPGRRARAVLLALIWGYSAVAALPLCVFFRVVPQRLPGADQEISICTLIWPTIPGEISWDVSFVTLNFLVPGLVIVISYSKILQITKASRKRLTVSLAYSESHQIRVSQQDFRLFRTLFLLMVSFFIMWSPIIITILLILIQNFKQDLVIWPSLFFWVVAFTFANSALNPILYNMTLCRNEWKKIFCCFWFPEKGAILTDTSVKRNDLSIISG
Experimental: (§1) HEK293 cells were cultured in a DMEM/F12 (Gibco) medium added with 15 mM HEPES (pH 7.3), 29 mM NaHCO3, and 10% FBS at 37° C. in an environment containing 5% CO2. On the day before the observation, the HEK293 cells on a 60-mm dish (IWAKI) with a cover glass (Matsunami Glass Ind., Ltd.) were transfected with a plasmid DNA (pDNA) of HaloTag-fused mGluR3 using Lipofectamine 3000 (Invitrogen). A transfection reagent and pDNA (pDNA (0.1 μg), P3000 reagent (0.2 μL), Lipofectamine 3000 reagent (2.5 μL), Opti-MEM (120 μL, Gibco)) were mixed, and the mixture was then left to stand at room temperature for 15 minutes and was added to HEK293 cells on the 60-mm dish containing DMEM/F12 (3 mL). […] After culturing at 37° C. in an environment containing 5% CO2 for 3 hours, the medium was replaced with DMEM (3 mL, Sigma) not containing phenol red and containing 10% FBS. […] TMR-labeled mGluR3 on the cell membranes of the HEK293 cells were excited with total internal reflection illumination on an inverted fluorescence microscope (TE2000, Nikon Corporation), and single-molecule imaging was performed. […]

mGluR3 [1] = target: T2, mGluR3 (Mus musculus, UniProt Q9QYS2); experiment: Single-molecule imaging of mGluR3 diffusive dynamics (MSD, DAv, VB-HMM diffusion states) in HEK293 cells; conditions: for IC50: IC50 of the LY379268 dependent change of DAv; for change of MSD of mGluR3: MSD-Δt plots, FIG. 1(c to e)
Experimental: A DNA sequence encoding HaloTag7 (Promega Corporation) was amplified by PCR and was fused to the C-terminal sequence of mouse mGluR3 using In-Fusion HD Cloning Kit (Clontech Laboratories, Inc.). In order to quantify the expression level of HaloTag-fused mGluR3 by Western blotting, the epitope sequence of a monoclonal antibody Rho 1D4 recognizing the C-terminus of bovine rhodopsin was added immediately after the HaloTag sequence. Complementary DNAs of mGluR3 were inserted into a pCAG-GS vector^21.
HEK293 cells were cultured in a DMEM/F12 (Gibco) medium added with 15 mM HEPES (pH 7.3), 29 mM NaHCO3, and 10% FBS at 37° C. in an environment containing 5% CO2. On the day before the observation, the HEK293 cells on a 60-mm dish (IWAKI) with a cover glass (Matsunami Glass Ind., Ltd.) were transfected with a plasmid DNA (pDNA) of HaloTag-fused mGluR3 using Lipofectamine 3000 (Invitrogen). A transfection reagent and pDNA (pDNA (0.1 μg), P3000 reagent (0.2 μL), Lipofectamine 3000 reagent (2.5 μL), Opti-MEM (120 μL, Gibco)) were mixed, and the mixture was then left to stand at room temperature for 15 minutes and was added to HEK293 cells on the 60-mm dish containing DMEM/F12 (3 mL). In two-color single-molecule measurement, pDNA (0.02 μg) of GFP-fused CLC was transfected together with HaloTag-fused mGluR3. After culturing at 37° C. in an environment containing 5% CO2 for 3 hours, the medium was replaced with DMEM (3 mL, Sigma) not containing phenol red and containing 10% FBS. After culturing overnight, the medium was replaced with 3 mL of DMEM containing 300 nM HaloTag TMR ligand (Promega Corporation) and not containing phenol red and FBS, followed by being left to stand at 37° C. in an environment containing 5% CO2 for 30 minutes to specifically stain the HaloTag-fused mGluR3 of the HEK293 cells. […] In single-molecule imaging, the cover glass was placed in a metal chamber (Invitrogen) and was washed with 400 μL of Hanks' balanced salt solution (HBSS (Sigma); containing 15 mM HPEPS (pH 7.1) and not containing NaHCO3) five times, followed by observation at room temperature (25° C.). TMR-labeled mGluR3 on the cell membranes of the HEK293 cells were excited with total internal reflection illumination on an inverted fluorescence microscope (TE2000, Nikon Corporation), and single-molecule imaging was performed. […] The fluorescences of TMR and GFP were wavelength dependently separated with dichroic mirror 59004b (Chroma) in a two-optical path branching system (M202J, Nikon Corporation), were allowed to pass through a band pass filter (GFP: ET525/50m, TMR: ET605/70m, Chroma), and were then photographed simultaneously by two EM-CCD cameras (ImagEM, Hamamatsu Photonics K.K.).

mGluR3 [2] = target: T2, mGluR3; experiment: [35S]-GTPγS binding experiment (G protein activation ability of mGluR3, purified Go protein); format: biochemical; set-up: expressed in transfected cells; host or cells: HEK293 (pCAG-GS vector)
Experimental: Each mixture was left to stand at 20° C. for 30 minutes. [^35S]-GTPγS was added to the mixture to start GDP/GTPγS exchange reaction. The composition except the ligand of the final mixture solution (20 μL) was 50 mM HEPES (pH 6.5), 140 mM NaCl, 5 mM MgCl2, 0.01% DM, 0.03% sodium cholate, 5 nM [^35S]-GTPγS, 500 nM GTPγS (cold), and 500 nM GDP. A reaction stop solution (200 μL, 20 mM Tris/Cl (pH 7.4), 100 mM NaCl, 25 mM MgCl2, 500 nM GTPγS (cold), and 500 nM GDP) was added to the mixture solution at 30 seconds after the addition of [^35S]-GTPγS to stop the incorporation of [^35S]-GTPγS into G protein, and immediately all the reaction solution was passed through a nitrocellulose membrane with the dot-blot apparatus to separate [^35S]-GTPγS bound to G protein. Subsequently, the nitrocellulose membrane was washed with buffer C (200 μL, 20 mM Tris/Cl (pH 7.4), 100 mM NaCl, and 25 mM MgCl2) three times and was dried for 1 hour. Each dot was excised from the nitrocellulose membrane and was placed in a cocktail for a liquid scintillation counter (Ultima Gold, PerkinElmer Life Sciences, Inc.), and the binding amount of [^35S]-GTPγS was quantified with LS6500 (Beckman Coulter).

mGluR3 [3] = target: T2, mGluR3; experiment: [3H]-LY341495 binding experiment, HEK293 membrane fraction expressing mGluR3
Experimental: HEK293 cells cultured to about 40% confluence in a 100-mm dish were transfected with mGluR3 pDNA and an empty pCAG vector as a mock each at 10 μg/dish by a calcium phosphate method. After the transfection, the cells were cultured in DMEM/F12 medium containing 10% FBS for 48 hours and were then collected, followed by centrifugation. The precipitation was washed with 1 mL of PBS (pH 7.4). Centrifugation was further performed. The precipitation was placed in a 1.5-mL tube and was homogenized with a pellet mixer in buffer A (50 mM HEPES (pH 6.5), 140 mM NaCl) in which 50% sucrose was dissolved, followed by centrifugation to separate supernatant and precipitate. […]
A cell membrane fraction containing mGluR3 was resuspended in HBSS (containing 15 mM HEPES (pH 7.1) and not containing NaHCO3, Sigma) having the same composition as that used in the single-molecule measurement, and the binding of [^3H]-LY341495 to the membrane was measured at room temperature. […] Each dot was excised from the nitrocellulose membrane and was placed in a cocktail for a liquid scintillation counter (Ultima Gold, PerkinElmer Life Sciences, Inc.), and the binding amount of [^3H]-LY341495 was quantified with LS6500 (Beckman Coulter). […] Kd was calculated from fitting result by an expression obtained by replacing the EC50 in Expression 3 mentioned above with kd. […] The IC50 was calculated based on Expression 4.

mGluR3 [4] = target: T2, mGluR3; experiment: Two-color single-molecule imaging, colocalization of TMR-labeled mGluR3 and GFP-labeled CLC; format: cell-based; set-up: expressed in transfected cells; host or cells: HEK293 (pCAG-GS vector); conditions: active (100 μM LY379268) versus inactive state (100 nM LY341495)
Source text: Colocalization of TMR-labeled mGluR3 and GFP-labeled CLC was defined as a track in which each bright spot was within 100 nm in the same frame. The positional accuracy of the bright spot tracking of TMR-labeled mGluR3 and GFP-labeled CLC was estimated to be 28 nm and 31 nm, respectively, from measurement of fixed samples. These values correspond to 1 SD of the displacement when fixed molecules were tracked. After image processing, the error between the positions of the same gold particle in two channels was estimated to be 18 nm. Accordingly, 100 nm corresponds to about 2 SD of the positional accuracy considering the total error. The time constant of colocalization was calculated by fitting the cumulative frequency distribution (FIG. 9(f)) by Expression 8.
The proportion of each component was calculated from the proportions of A1 and A2.

F2R = F2R (Homo sapiens, UniProt P25116); conditions: F2R in HEK293 cells, 10 μM ligand, mean ± standard error, n=20 cells; vehicle 0.084
CXCR4 = target: T3, CXCR4 (Homo sapiens, UniProt P61073); experiment: Single-molecule imaging of GPCR diffusive dynamics (DAv) in HEK293 cells; format: cell-based; conditions: 20 nM ligand, mean ± standard error, n=20 cells, vehicle 0.087
T3 construct: host or cells: HEK293
Experimental: as §1

HRH1 = HRH1 (Homo sapiens, UniProt P35367); conditions: HRH1 in HEK293 cells, 1 μM ligand, mean ± standard error, n=20 cells; vehicle 0.064
HTR2A = HTR2A (Homo sapiens, UniProt P28223); experiment: Single-molecule imaging of GPCR diffusive dynamics (DAv) in HEK293 cells; format: cell-based; conditions: 10 μM ligand, mean ± standard error, n=20 cells, vehicle 0.079
HTR2A, sequence (P28223 whole entry): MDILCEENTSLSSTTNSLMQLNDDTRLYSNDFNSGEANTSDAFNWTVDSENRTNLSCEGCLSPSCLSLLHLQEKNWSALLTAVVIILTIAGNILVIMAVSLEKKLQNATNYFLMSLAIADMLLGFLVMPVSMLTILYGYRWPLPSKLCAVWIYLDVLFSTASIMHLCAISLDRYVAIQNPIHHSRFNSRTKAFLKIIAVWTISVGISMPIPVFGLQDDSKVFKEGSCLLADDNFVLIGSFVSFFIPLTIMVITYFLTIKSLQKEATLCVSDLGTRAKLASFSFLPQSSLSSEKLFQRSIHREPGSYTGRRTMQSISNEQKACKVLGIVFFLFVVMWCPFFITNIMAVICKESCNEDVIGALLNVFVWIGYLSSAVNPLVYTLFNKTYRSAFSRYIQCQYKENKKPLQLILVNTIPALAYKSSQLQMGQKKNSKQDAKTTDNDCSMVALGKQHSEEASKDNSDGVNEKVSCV

T2 sequence (Q9QYS2 23-879): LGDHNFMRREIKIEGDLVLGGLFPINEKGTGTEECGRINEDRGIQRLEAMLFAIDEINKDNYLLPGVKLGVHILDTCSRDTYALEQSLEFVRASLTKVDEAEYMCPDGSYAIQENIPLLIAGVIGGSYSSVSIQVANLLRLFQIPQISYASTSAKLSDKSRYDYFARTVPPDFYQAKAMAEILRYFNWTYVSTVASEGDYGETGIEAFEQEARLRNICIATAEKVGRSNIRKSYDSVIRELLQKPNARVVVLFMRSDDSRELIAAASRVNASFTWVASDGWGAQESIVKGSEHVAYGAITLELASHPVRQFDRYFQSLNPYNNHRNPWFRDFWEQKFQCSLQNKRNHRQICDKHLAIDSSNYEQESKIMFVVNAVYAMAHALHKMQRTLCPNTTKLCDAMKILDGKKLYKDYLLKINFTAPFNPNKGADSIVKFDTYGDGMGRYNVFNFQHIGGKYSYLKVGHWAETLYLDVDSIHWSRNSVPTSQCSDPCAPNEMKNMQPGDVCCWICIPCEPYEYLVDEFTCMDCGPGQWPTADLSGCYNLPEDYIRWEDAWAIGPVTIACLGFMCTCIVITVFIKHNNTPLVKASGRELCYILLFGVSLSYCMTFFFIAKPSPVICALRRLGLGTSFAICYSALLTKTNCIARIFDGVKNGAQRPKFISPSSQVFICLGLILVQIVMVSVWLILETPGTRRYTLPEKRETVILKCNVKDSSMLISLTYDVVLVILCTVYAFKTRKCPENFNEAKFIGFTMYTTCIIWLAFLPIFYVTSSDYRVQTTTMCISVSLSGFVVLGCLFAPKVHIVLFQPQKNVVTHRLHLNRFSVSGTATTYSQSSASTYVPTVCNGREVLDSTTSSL
HRH1, sequence (P35367 whole entry): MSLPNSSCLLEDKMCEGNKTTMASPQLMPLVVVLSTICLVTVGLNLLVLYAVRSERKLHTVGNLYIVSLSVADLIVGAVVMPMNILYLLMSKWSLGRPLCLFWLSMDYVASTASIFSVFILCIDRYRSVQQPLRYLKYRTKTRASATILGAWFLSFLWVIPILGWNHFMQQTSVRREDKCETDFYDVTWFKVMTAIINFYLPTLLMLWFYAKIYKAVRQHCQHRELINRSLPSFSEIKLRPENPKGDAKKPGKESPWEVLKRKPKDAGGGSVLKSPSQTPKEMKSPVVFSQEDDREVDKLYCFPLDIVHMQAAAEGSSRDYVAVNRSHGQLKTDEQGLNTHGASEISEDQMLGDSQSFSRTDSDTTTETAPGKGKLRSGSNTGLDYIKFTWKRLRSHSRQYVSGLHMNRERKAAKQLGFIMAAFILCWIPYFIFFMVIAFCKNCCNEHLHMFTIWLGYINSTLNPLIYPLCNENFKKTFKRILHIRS
T3 sequence (P61073 whole entry): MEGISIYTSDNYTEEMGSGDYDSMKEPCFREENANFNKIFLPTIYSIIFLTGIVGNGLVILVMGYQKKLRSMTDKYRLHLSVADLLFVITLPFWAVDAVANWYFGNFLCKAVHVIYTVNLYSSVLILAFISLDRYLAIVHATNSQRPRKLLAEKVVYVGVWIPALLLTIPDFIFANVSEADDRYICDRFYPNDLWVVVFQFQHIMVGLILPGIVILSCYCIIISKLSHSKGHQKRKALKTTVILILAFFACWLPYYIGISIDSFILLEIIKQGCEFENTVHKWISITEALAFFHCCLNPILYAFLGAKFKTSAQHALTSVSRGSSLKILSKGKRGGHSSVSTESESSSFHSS
F2R, sequence (P25116 22-425): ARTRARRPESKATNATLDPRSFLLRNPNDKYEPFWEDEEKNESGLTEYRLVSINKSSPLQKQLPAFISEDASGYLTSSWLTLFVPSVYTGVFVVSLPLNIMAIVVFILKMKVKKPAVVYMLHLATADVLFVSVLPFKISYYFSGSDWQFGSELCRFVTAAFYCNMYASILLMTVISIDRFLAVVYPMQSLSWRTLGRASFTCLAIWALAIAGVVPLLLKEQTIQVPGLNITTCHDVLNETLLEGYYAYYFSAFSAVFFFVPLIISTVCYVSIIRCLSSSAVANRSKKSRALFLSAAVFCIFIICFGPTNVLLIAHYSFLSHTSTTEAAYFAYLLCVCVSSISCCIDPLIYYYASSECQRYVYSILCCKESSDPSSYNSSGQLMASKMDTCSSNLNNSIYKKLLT

DAv, Ligand (FFAR4): 0.048 ± 0.0073 μm^2/s
Compound: CC/C=C\C/C=C\C/C=C\C/C=C\C/C=C\C/C=C\CCC(=O)O [DHA]

IC50 (mGluR3 [1]; FIG. 4(a), absence of other ligands, n=20 cells): 1190 ± 20 nM
IC50 (mGluR3 [1]; FIG. 4(b), presence of 100 nM LY341495, n=20 cells): 1030 ± 80 nM
change of MSD of mGluR3 (mGluR3 [1]; n=20 cells): decreased depending on the concentration
DAv, Ligand (mGluR3 [1]; mGluR3 in HEK293 cells, 100 μM ligand, mean ± standard error, n=20 cells, vehicle 0.047): 0.039 ± 0.0018 μm^2/s
EC50 (mGluR3 [2]; absence of other ligands, FIG. 4(e), n=3, read-out: EC50 of the LY379268-dependent increase of the G protein activation ability of mGluR3): 25 ± 2.9 nM
IC50 (mGluR3 [3]): 550 ± 80 nM
increase in the colocalization probability of mGluR3 and CLC (mGluR3 [4]; FIG. 10(e)): about 1.6 fold
increase of the Long-time constant of colocalization of mGluR3 and CLC (mGluR3 [4]; FIG. 10(g)): about two-fold
Compound: N[C@@]1(C(=O)O)CO[C@H]2[C@H](C(=O)O)[C@H]21 [LY379268]
ligand-dependent change of the proportions of the diffusion states (VB-HMM) (mGluR3 [1]; concentration dependent, FIG. 5(c, d)): increases in the immobile and slow states and a decrease in the fast state

Compound: TRAP-6
DAv, Ligand (F2R): 0.060 ± 0.0017 μm^2/s

Compound: CXCL12: chemokine, agonist used on CXCR4
DAv, Ligand (CXCR4): 0.068 ± 0.0017 μm^2/s

DAv, Ligand (HRH1): 0.045 ± 0.0025 μm^2/s
Compound: NCCc1c[nH]cn1 [histamine]

Compound: MNI137
effect on LY379268 concentration-dependent change of DAv (mGluR3 [1]; 1 μM, presence of 100 nM LY341495, FIG. 4(b)): the LY379268 concentration-dependent decrease of DAv was suppressed
change of MSD of mGluR3 (mGluR3 [1]; n=20 cells): the LY379268-dependent decrease of the MSD was suppressed
effect on LY379268-dependent G protein activation ability (mGluR3 [2]; 1 μM MNI137, 100 nM LY341495 present, FIG. 4(f)): suppresses the LY379268-dependent increase of G protein activation ability
influence on the binding affinity of LY379268 (mGluR3 [3]; 1 μM MNI137, competition with 100 nM [3H]-LY341495, FIG. 4(d)): did not influence the binding affinity of LY379268

DAv, Ligand (HTR2A): 0.065 ± 0.0034 μm^2/s
Compound: NCCc1c[nH]c2ccc(O)cc12 [serotonine]

— patent publication US11002728B2, “Method for evaluating activity of G protein-coupled receptor (GPCR)” (RIKEN, priority 2017, dated 2021)
